A short description of data set [1]: Screening hydrolysis test. The settings on record: 5 d. In kind it is physicochemical. How it is done:
Syntex derived many basic physicochemical properties for both MPM and MPA in the early 1990s. The results for MPA are mostly given in the present study.
A screening hydolysis test was performed by Syntex with MPA in 0.1 M buffered solutions in triplicate at pH 5, 7 and 9 over 5 days at 50 °C, with HPLC determination of MPA at the start and end of the exposure, 'closely following US Food and Drug Administration 1987 Environmental Assessment Technical Assistance Handbook recommendations' (Young & Licato 1994b).

Data set [2] relates to Danio rerio. As to the kind of experiment: Fish partial life cycle test, OECD 229 short-term reproduction phase (F0). In kind it is in vivo. How it is done:
At the highest tested concentration of 0.1 mg MPA/L nominal concentration (73 µg/L GMMC), only 2 of 75 hatched fish survived until the end of the test, showing that the test concentration range was well chosen. The most sensitive endpoints in this partial life cycle test were survival and growth in terms of length and mass of the young F1 fish; the effects were comparatively small but statistically significant at p = 0.05. In contrast, the F0 generation was impacted to a lesser extent.
In view of the mammalian mutagenicity and reprotoxicity, a fish partial life-cycle test (PLC; an OECD 229 short-term reproduction test followed by an OECD 210 early-life-stage test) was performed by ECT Oekotoxikologie under GLP with a series of concentrations of MPA in a flow-through setting with the zebrafish Danio rerio (Gilberg & Chambers 2018). Briefly, mature fish (F0 generation) in breeding groups of 14 fish were exposed to four concentrations of the test item (0.0005, 0.0029, 0.0171 and 0.100 mg MPA/L), in fish media as well as to controls without the test item, in two replicates per treatment including controls, for 23 days in a 14-hours light to 10-hours dark photoperiod (OECD 229 phase). During this time period, reproduction parameters (survival of parents, fecundity, e.g., number of eggs, fertility and embryo viability/hatchability) of zebrafish exposed to the test item were assessed in comparison with the controls to determine the lowest observed effect concentration (LOEC) and the NOEC. After 23 days, newly fertilised eggs of the F1 generation were collected and exposed to the corresponding series of test item concentrations, 20 eggs in four replicates each per treatment including controls, until 30 days post-hatch (OECD 210 phase). Lethal and sublethal effects of the test item on eggs, larvae and juvenile fish exposed to the test item were assessed in comparison with controls to determine the LOEC and the NOEC. Samples were taken and analysed by LC–MS/MS (Supplemental Information) and the GMMC for the concentrations determined. Statistical check were made using Probit analyses, Weibull analyses, 2- and 3-parameter normal CDF, Shapiro-Wilk’s test on normal distribution, Levene’s test on variance homogeneity, Fisher's Exact Binomial test, Chi² 2×2 Table Test, Welsh t-test, Step-down Cochran-Armitage test Procedure, Williams Multiple Sequential t-test Procedure and Dunnett`s Multiple t-test Procedure.

Data set [3] has as its system bacteria. The experiment in a line: Derivation of provisional PNEC for antibiotic resistance (PNECABR). Here is the method: Antibiotic resistance risk is assessed through comparing PECs or MECs with a PNEC for formation or maintenance of antibiotic resistance (PNECABR). There is no universally accepted or regulatory algorithm for deriving a reliable PNECABR for bacteria, so for the time being this is approximated by applying assessment factors to bacterial minimal inhibitory concentrations (MICs). […] To be fully consistent with Bengtsson‐Palme and Larsson's (2016) approach to PNECABR derivation, the authors were contacted for help; they (J. Bengtsson‐Palme, Department of Infectious Diseases, Institute of Biomedicine, The Sahlgrenska Academy, University of Gothenberg, Gothenberg, Sweden, personal communication) state that “we only use species with 10 or more MIC observations, to avoid drawing conclusions from insufficient data […] . The only species with >10 observations in the Noto et al. (1969) paper is S[taphylococcus] aureus. In addition, when the MIC1% are selected, only one MIC [J.O.Straub's italics] value is selected per species (the lowest). Finally, the uncertainty factor for low sampling numbers is calculated as: (observed lowest MIC) × (number of tested species) ÷ 41.” Both these provisional PNECABR values were derived from the MPA MICs; the lower was selected and compared with the PECs and MECs.
Noto et al. (1969) tested the activity of MPA against various microorganisms, both fungi and some strains of bacteria. […] Higher inhibition of MPA was shown against pathogenic fungi of the genera Candida, Willia, Cryptococcus, Microsporum, Aspergillus, and Trichophyton, with MICs ranging from 3.9 to 500 mg/L (Noto et al. 1969).

For data set [4] the following is noted: cited from earlier work; for k photo: ref Franquet‐Griell et al. (2017a).
On the set-up of data set [5]: method as in Franquet‐Griell et al. (2017a). The settings on record: ref Franquet‐Griell et al. (2017a), cited from earlier work.
Data set [6] relates to Artemia salina. Details: method as in earlier work. The settings on record: non‐GLP; ref Ďuračková et al. 1977; cited from earlier work.

The text below walks through data of article PMC6856805, “Environmental Risk Assessment for the Active Pharmaceutical Ingredient Mycophenolic Acid in European Surface Waters” (Environmental Toxicology and Chemistry, 2019).

Like-named read-outs stand apart in the source and are kept apart here.

With `COc1c(C)c2c(c(O)c1CC=C(C)CCC(=O)O)C(=O)OC2` [MPA, 6‐(1,3‐dihydro‐4‐hydroxy‐6‐methoxy‐7‐methyl‐3‐oxo‐5‐isobenzofuranyl)‐4‐methyl‐4‐hexenoic acid], the Screening hydrolysis in data set [1] (pH 5, 50 °C) came to 46.15 % Substance loss; in data set [1] (pH 7, 50 °C), 29.03 % Substance loss; in data set [1] (pH 9, 50 °C), 36.67 % Substance loss. Besides, in data set [2] (23 d, GMMC), the “EC10 for survival of the parental fish” value was found to be 0.0189 µg/mL. The “NOEC of all endpoints (survival of parental fish, fecundity, fertilization success), F0” value is 73 µg/L in data set [2] (23 d, GMMC) and 100 µg MPA/L in data set [2] (23 d, highest tested nominal concentration). Further, the “EC10 for fecundity and fertilization success” value in data set [2] (Danio rerio, in vivo, 23 days) is reported as more than 73 µg MPA/L. Besides, the “provisional PNECABR (rounded down, selected)” value in data set [3] (lower of the 2 values) worked out at 64 µg MPA/L. For the same compound, the “first provisional PNECABR” value in data set [3] (lowest MIC divided by 100, following Kümmerer and Henninger (2003)) is listed as 312.5 µg/L. Besides, the “second provisional PNECABR” value in data set [3] (procedure of Bengtsson‐Palme and Larsson (2016), before rounding) is 76 µg/L. In addition, the values for the k photo in data set [4] (Solar Box artificial sunlight reactor) and in data set [4] (UV‐C irradiation) were 0.004 min^–1 and 0.0284 min^–1, respectively. Moreover, the UV-C photodegradation entry in data set [4] (pH 7, 20 mg/L MPA, ref Marín‐García (2015)) is listed as “negligible photodegradation”. Also, the results for the “biodegradation rate constant k biodeg” value in data set [5] (fifth cycle) and in data set [5] (first cycle) were 0.006 min^–1 and 0.0017 min^–1, respectively. For the same compound, the “16‐h LC50” value in data set [6] is recorded as 98.4 mg MPA/L.
